The source of these data is PubChem BioAssay (NCI).

Some test systems named below: SF-295 CNS; NCI/ADR-RES ovarian; MALME-3M melanoma; SK-MEL-2 melanoma; MCF7 breast; COLO 205 colon; SNB-75 CNS; UACC-257 melanoma; CCRF-CEM leukemia; DU-145 prostate.
Assay in all cases: NCI tumour cell line growth inhibition, 48 h

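Cultured in 96-well plates, cells were exposed to test compound for 48 hours across five concentrations. At the GI50, growth is halved. TGI denotes the concentration required for complete inhibition of growth.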

As for `COc1ccc(/C=C(/C)[N+](=O)[O-])cc1`, the TGI is 19 µM in the test on SF-295 CNS; 13.6 µM in the test on NCI/ADR-RES ovarian; 4.59 µM in the test with MALME-3M melanoma; 10.8 µM with SK-MEL-2 melanoma; 2.51 µM in the test on MCF7 breast; 4.3 µM in the test with COLO 205 colon. Further, the TGI in the test on SNB-75 CNS was found to be 3.4 µM; in the test on UACC-257 melanoma it was 3.08 µM; in the test with CCRF-CEM leukemia, 4.48 µM; in the test with DU-145 prostate, 6.26 µM.
As to `CC(O)(CNS(=O)(=O)c1ccccc1)c1ccccc1` (configuration not stated), the TGI in the test on SF-295 CNS, in the test on NCI/ADR-RES ovarian, with MALME-3M melanoma, in the test on SK-MEL-2 melanoma, in the test with MCF7 breast and with COLO 205 colon was over 100 µM throughout. The TGI with SNB-75 CNS, in the test on CCRF-CEM leukemia and in the test on DU-145 prostate was over 100 µM in each case.
For `C1=C(c2ccccc2)SC=C(c2ccccc2)S1`, the TGI is over 100 µM in the test on SF-295 CNS; 64 µM with NCI/ADR-RES ovarian; over 100 µM in the test with MALME-3M melanoma; 48.2 µM in the test with MCF7 breast; over 100 µM with COLO 205 colon; 64 µM in the test on SNB-75 CNS. Besides, the TGI with UACC-257 melanoma, with CCRF-CEM leukemia and in the test on DU-145 prostate was over 100 µM each time.
As for `O=C(CNc1ncco1)Nc1ccc(S(=O)(=O)c2ccc(NC(=O)CNc3ncco3)cc2)cc1`, the GI50 was 3.02 µM in the test on NCI/ADR-RES ovarian; 2.12 µM in the test with MALME-3M melanoma; 2.49 µM in the test on SK-MEL-2 melanoma; 1.34 µM in the test on MCF7 breast; 1.75 µM with COLO 205 colon; 6.04 µM in the test with SNB-75 CNS. Moreover, the GI50 in the test with UACC-257 melanoma is 1.85 µM; with CCRF-CEM leukemia, 1.08 µM; in the test with DU-145 prostate, 4.79 µM. For the same molecule, the TGI in the test with NCI/ADR-RES ovarian was 19.6 µM; with MALME-3M melanoma, 4.56 µM; with SK-MEL-2 melanoma, 5.65 µM; in the test with MCF7 breast it was 5.66 µM; in the test with COLO 205 colon, 3.55 µM; in the test on SNB-75 CNS, 20.7 µM. In addition, the TGI in the test with UACC-257 melanoma turned out to be 4.86 µM; with CCRF-CEM leukemia, 5.91 µM; in the test with DU-145 prostate, 16.4 µM.
For `[C-]#[N+][C@]12C(=O)[C@H](CCC1(C)C)C(C)(C)[C@H]1C(=O)N(C)c3cccc2c31`, the GI50 with NCI/ADR-RES ovarian was over 100 µM; in the test with SK-MEL-2 melanoma, 30.6 µM; in the test with MCF7 breast, 4.54 µM; with COLO 205 colon it was 5.06 µM; in the test on SNB-75 CNS it was 64.3 µM; in the test on UACC-257 melanoma it was 4.07 µM. For the same molecule, the GI50 is 5.84 µM in the test with CCRF-CEM leukemia and 61.6 µM with DU-145 prostate. Also, the TGI with NCI/ADR-RES ovarian, with SK-MEL-2 melanoma, in the test on MCF7 breast, in the test with COLO 205 colon, in the test on SNB-75 CNS and with UACC-257 melanoma was over 100 µM each time. Moreover, the TGI with CCRF-CEM leukemia and with DU-145 prostate was over 100 µM each time.
Consider `O=[N+]([O-])c1ccc(/C=C(/c2ccc([N+](=O)[O-])o2)S(=O)(=O)c2ccccc2)o1`, for which the TGI in the test with SF-295 CNS was found to be 34.2 µM; in the test on NCI/ADR-RES ovarian, 39.1 µM; in the test on MALME-3M melanoma it was 7.45 µM; with SK-MEL-2 melanoma it was 35.8 µM; with MCF7 breast, 72.7 µM; in the test with COLO 205 colon, 4.67 µM. For the same molecule, the TGI in the test on SNB-75 CNS came to 33.7 µM; in the test on UACC-257 melanoma it was 3.66 µM; in the test with DU-145 prostate, 28 µM.
In the case of `CC1SC(c2c(Cl)cccc2Cl)N(NC(=O)C(O)c2ccccc2)C1=O` (configuration not stated), the GI50 in the test on SF-295 CNS is over 100 µM; in the test on NCI/ADR-RES ovarian, 45.4 µM; in the test on SK-MEL-2 melanoma it was over 100 µM; with MCF7 breast, 74.2 µM; in the test on COLO 205 colon it was over 100 µM; in the test on SNB-75 CNS, 46.9 µM. The GI50 in the test on UACC-257 melanoma is 86.3 µM; in the test on CCRF-CEM leukemia, 74.6 µM; in the test on DU-145 prostate it was over 100 µM. In addition, the TGI in the test with SF-295 CNS, with NCI/ADR-RES ovarian, in the test on SK-MEL-2 melanoma, with MCF7 breast, with COLO 205 colon and in the test with SNB-75 CNS was over 100 µM each time. Also, the TGI in the test with UACC-257 melanoma, in the test on CCRF-CEM leukemia and in the test with DU-145 prostate was over 100 µM throughout.
For `Oc1c(I)cc(-c2nc3ccccc3s2)cc1CN(Cc1ccccn1)Cc1ccccn1`, the GI50 in the test on SF-295 CNS is 0.35 µM; in the test on NCI/ADR-RES ovarian, 0.411 µM; in the test on MALME-3M melanoma it was 0.288 µM; in the test on SK-MEL-2 melanoma it was 0.362 µM; in the test on MCF7 breast, 0.34 µM; with COLO 205 colon, 0.352 µM. In addition, the GI50 in the test with UACC-257 melanoma was 0.87 µM; in the test on CCRF-CEM leukemia, 0.35 µM; in the test on DU-145 prostate, 0.616 µM. For the same molecule, the TGI in the test on SF-295 CNS was over 100 µM; with NCI/ADR-RES ovarian, 2.93 µM; with MALME-3M melanoma, 4.79 µM; in the test with SK-MEL-2 melanoma it was 17.8 µM; in the test with MCF7 breast it was 35 µM; with COLO 205 colon, 20.7 µM. The TGI in the test on UACC-257 melanoma, in the test on CCRF-CEM leukemia and in the test with DU-145 prostate was over 100 µM each time.
In the case of `O=C(Nc1cccc(O)c1)c1cccc(NC2=C(Cl)C(=O)N(Cc3ccccc3)C2=O)c1`, the GI50 in the test on SF-295 CNS is 6.39 µM; in the test on NCI/ADR-RES ovarian it was 19.7 µM; with SK-MEL-2 melanoma, 4.63 µM; in the test on MCF7 breast, 23.4 µM; with COLO 205 colon it was 27.4 µM; in the test on SNB-75 CNS, 18.4 µM. For the same molecule, the GI50 was 14 µM in the test on UACC-257 melanoma, 0.513 µM in the test on CCRF-CEM leukemia and 3.61 µM in the test on DU-145 prostate. Also, the TGI in the test with SF-295 CNS amounted to 21.3 µM; with NCI/ADR-RES ovarian, 37 µM; in the test on SK-MEL-2 melanoma it was 19.3 µM; in the test with MCF7 breast it was 59.9 µM; in the test on COLO 205 colon, 67 µM; with SNB-75 CNS, 36.3 µM. Further, the TGI with UACC-257 melanoma is 31.8 µM; in the test with CCRF-CEM leukemia, over 100 µM; in the test on DU-145 prostate, 16 µM.
Regarding `NC(=S)N/N=C\c1nccc2c(N)cccc12`, the GI50 in the test on SF-295 CNS was 0.309 µM; in the test on NCI/ADR-RES ovarian, 0.375 µM; with MALME-3M melanoma, 0.316 µM; with SK-MEL-2 melanoma, 2.79 µM; in the test on MCF7 breast it was 0.218 µM; in the test with COLO 205 colon, 1.09 µM. The figures for the GI50 in the test on SNB-75 CNS, in the test with UACC-257 melanoma and in the test with DU-145 prostate were 0.139 µM, 0.624 µM and 0.278 µM, respectively. Further, the TGI is 3.81 µM in the test with SF-295 CNS; 17.3 µM in the test with NCI/ADR-RES ovarian; 3.08 µM with MALME-3M melanoma; over 100 µM in the test on SK-MEL-2 melanoma; over 100 µM with COLO 205 colon; 87.5 µM in the test with SNB-75 CNS. The TGI in the test on UACC-257 melanoma was determined as 9.44 µM; in the test with DU-145 prostate it was 2.38 µM.
